From patent publication US20180296586A1, “USE OF NADPH FOR PREPARATION OF A DRUG FOR ANTIPLATELET AGGREGATION” (Chongqing Institute of Bench-to-Bed Bioengineering …, priority 2015, published 2018)

Key:
[1] = system: ADP-induced platelet aggregation; test: ADP-induced platelet aggregation of rats, in-vitro administration of NADPH; format: cell-based; conditions: rat PRP, NADPH 30, 60 and 90 μM in vitro, ADP 20 μM, 4 min; P<0.05, P<0.01 vs ADP group
Procedure: (§1) 20 rats are subjected to blood drawing from abdominal aorta, 3.8% sodium citrate is used for carrying out anticoagulation treatment according to a drawn blood volume/anticoagulant ratio of 9:1, centrifugation is carried out for 5 min at a rate of 1000 r/min, upper-layer platelet-rich plasma (PRP) is sucked out, remaining blood is subjected to centrifugation for 10 min at a rate of 3000 r/min to prepare platelet-poor plasma (PPP) until the number of platelets is 2*10<8>/mL, and platelet aggregation is detected by adopting a platelet aggregometer Chronolog-590.
(§2) The platelet aggregometer is turned on and preheated for 30 min, and light transmittance is adjusted to 100% with PPP as blank control. 0.25mL of NADPH samples of different concentrations (30 μM, 60 μM and 90 μM) are added into PRP, preheating is conducted for 5 min at the temperature of 37 DEG C., the preheated material is put into the aggregometer, then, a certain amount of ADP (20 μM) is added to induce platelet aggregation, graphic changes in 4 min are recorded, and conditions of ADP-induced platelet aggregation caused by NADPH are observed.

[2] = system: thrombin-induced platelet aggregation; test: Thrombin-induced platelet aggregation of rats, in-vitro administration of NADPH; format: cell-based; conditions: rat PRP, NADPH 30, 60 and 90 μM in vitro, thrombin 2U, 4 min; P<0.05, P<0.01 vs thrombin group
Procedure: as §1
as §2, with “100 %” for “100%”, “0.25 mL” for “0.25mL”, “thrombin (2U)” for “ADP (20 μM)”, “thrombin-induced” for “ADP-induced”

[3] = system: ADP-induced platelet aggregation; test: ADP-induced platelet aggregation after preventive administration of NADPH in rats; format: in vivo, rat; conditions: NADPH 7.5 mg/kg caudal vein 30 min before blood drawing, ADP 20 μM, P<0.01
Procedure: as §1, with “Normal SD male rats are randomly divided into 2 groups, i.e., a physiological saline group (saline group) and an NADPH (7.5 mg/kg) dosage group in a manner that each group comprises 10 rats. NADPH is injected into the rats through caudal veins 30 min before blood drawing. The” for “20”
The platelet aggregometer is turned on and preheated for 30 min, and light transmittance is adjusted to 100% with PPP as blank control. APRP sample of the physiological saline group (saline group) and a PRP sample of the NADPH (7.5 mg/kg) dosage group are preheated for 5 min at the temperature of 37 DEG C., the preheated PRP samples are put into the aggregometer, then, a certain amount of ADP (20 μM) is added to induce platelet aggregation, graphic changes in 4 min are recorded, and conditions of ADP-induced platelet aggregation caused by NADPH are observed.

[4] = system: thrombin-induced platelet aggregation; test: Thrombin-induced platelet aggregation after preventive administration of NADPH in rats; format: in vivo, rat; conditions: NADPH 7.5 mg/kg caudal vein 30 min before blood drawing, thrombin 2U, P<0.01
Procedure: as §1, with “Normal SD male rats are randomly divided into 2 groups, i.e., a physiological saline group (saline group) and an NADPH (7.5 mg/kg) dosage group in a manner that each group comprises 10 rats. NADPH is injected into the rats through caudal veins 30 min before blood drawing. The” for “20”
The platelet aggregometer is turned on and preheated for 30 min, and light transmittance is adjusted to 100% with PPP as blank control. […]

NC(=O)C1=CN([C@@H]2O[C@H](COP(=O)(O)OP(=O)(O)OC[C@H]3O[C@@H](n4cnc5c(N)ncnc54)[C@H](OP(=O)(O)O)[C@@H]3O)[C@@H](O)[C@H]2O)C=CC1 [NADPH, Reduced triphosphopyridine nucleotide]
inhibition of ADP-induced platelet aggregation [1]: inhibits ADP-induced platelet aggregation of rats in a dose-dependent mode
inhibition of thrombin-induced platelet aggregation [2]: inhibits thrombin-induced platelet aggregation of the rats in a dose-dependent mode
inhibition of ADP-induced platelet aggregation [3]: remarkably inhibit ADP-induced platelet aggregation
inhibition of thrombin-induced platelet aggregation [4]: remarkably inhibit thrombin-induced platelet aggregation
